Measured values reported in patent US10259807B2, “1-(piperazin-1-yl)-2-([1,2,4]triazol-1-yl)-ethanone derivatives” (Idorsia Pharmaceuticals Ltd., priority 2013, dated 2019).

Tests used:
human CXCR3A = target: T1, human CXCR3A (Homo sapiens, UniProt P49682); assay: FLIPR assay (CXCL10-induced calcium signal in CHO-K1 cells); format: cell-based; details: CHO-K1 cells expressing human CXCR3A coupled to Galpha(16); CXCL10 agonist 20 nM; mean values
T1 construct: expressed in transfected cells; host or cells: CHO-K1
T1 sequence (P49682 1-368): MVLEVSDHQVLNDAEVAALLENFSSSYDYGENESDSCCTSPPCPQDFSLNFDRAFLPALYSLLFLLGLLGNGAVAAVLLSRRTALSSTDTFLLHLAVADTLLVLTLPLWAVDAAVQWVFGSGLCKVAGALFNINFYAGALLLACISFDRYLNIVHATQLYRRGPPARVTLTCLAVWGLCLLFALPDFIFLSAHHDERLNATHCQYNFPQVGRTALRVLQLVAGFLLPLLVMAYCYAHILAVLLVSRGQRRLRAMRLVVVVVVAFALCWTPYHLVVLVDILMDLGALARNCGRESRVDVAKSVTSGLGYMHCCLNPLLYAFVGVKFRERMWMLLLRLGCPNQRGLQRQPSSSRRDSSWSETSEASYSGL
Procedure: A) FLIPR assay: The bioactivity of compounds is tested in a fluorometric imaging plate reader (FLIPR: Molecular Devices) using engineered CHO-K1 cells expressing the human CXCR3A (GenBank: AY242128) coupled to a G protein (Galpha(16)). Cells are plated the day prior to bioassay in F12 medium supplemented with 10% FBS and G418 and hygromycin antibiotics to maintain recombinant selection. […] Cells are washed free of excess dye and 60 microliter of wash buffer is added. Stock solutions of test compounds are made up at a concentration of 10 mM in DMSO, and serially diluted in dilution buffer to concentrations required for inhibition dose response curves. After a 10 minute incubation period at 37° C., 10 microliters of each compound dilution are transferred from a compound plate to the plate containing the recombinant cells in the FLIPR instrument according to the manufacturer's instructions. Following basal readings, 10 microliter CXCL10 agonist at a concentration of 20 nM (from Peprotech) is added, again using the FLIPR instrument. Changes in fluorescence are monitored before and after addition of the test compounds. Emission peak values above base level after CXCL10 addition are exported after base line subtraction. The program XLfit is used to fit the data to a single site dose response curve and to calculate IC50 values. The calculated IC50 values may fluctuate depending on the daily assay performance. Fluctuations of this kind are known to those skilled in the art.

hERG K channel = target: T2, hERG K channel (Homo sapiens, UniProt Q12809); assay: hERG Q-Patch assay; format: cell-based; details: CHO cells expressing hERG, K+ tail current 3 min after application, mean of two or three experiments
T2 construct: host or cells: CHO
Procedure: B) hERG Q-Patch assay: Compounds are evaluated for block of the hERG K channel using CHO cells stably expressing the hERG gene (accession number U04270, bSys, Witterswil. Switzerland) and the Patch robotic platform (Sophion, Ballerup, Denmark) in single-cell mode at room temperature. […] When the cells are ˜80% confluent (every 2-3 days), they are either split for further culture or used for electrophysiology. […] Cells are kept in suspension medium at 32-35° C. in the QPatch robot until use, at which time aliquots are transferred to the extracellular solution (in mM: NaCl 150; KCl 4; CaCl2 1.2; MgCl2 1; HEPES 10; pH 7.4 with NaOH) containing 0.3% v/v DMSO and applied to the test plates. K^+ currents are measured with the patch-voltage-clamp technique in the whole-cell configuration with the internal solution (in […]: KCl, 140; NaCl, 10; MgCl2, 1; HEPES, 10; EGTA, 5; pH=7.2 with KOH). […] K^+tail currents are produced from a holding voltage of −80 mV by a 500-ms depolarization to +20 mV followed by a 500-ms repolarization to −40 mV; tail current amplitudes are measured at the end of the repolarization to −40 mV. The pulse pattern is repeated every 10 sec during the experiment, baseline K^+ current is measured after 3 min in extracellular solution, test-solution containing compound is then applied, and K^+ current in presence of compound is measured 3 minutes after application to the cells.

T2 sequence (Q12809 whole entry): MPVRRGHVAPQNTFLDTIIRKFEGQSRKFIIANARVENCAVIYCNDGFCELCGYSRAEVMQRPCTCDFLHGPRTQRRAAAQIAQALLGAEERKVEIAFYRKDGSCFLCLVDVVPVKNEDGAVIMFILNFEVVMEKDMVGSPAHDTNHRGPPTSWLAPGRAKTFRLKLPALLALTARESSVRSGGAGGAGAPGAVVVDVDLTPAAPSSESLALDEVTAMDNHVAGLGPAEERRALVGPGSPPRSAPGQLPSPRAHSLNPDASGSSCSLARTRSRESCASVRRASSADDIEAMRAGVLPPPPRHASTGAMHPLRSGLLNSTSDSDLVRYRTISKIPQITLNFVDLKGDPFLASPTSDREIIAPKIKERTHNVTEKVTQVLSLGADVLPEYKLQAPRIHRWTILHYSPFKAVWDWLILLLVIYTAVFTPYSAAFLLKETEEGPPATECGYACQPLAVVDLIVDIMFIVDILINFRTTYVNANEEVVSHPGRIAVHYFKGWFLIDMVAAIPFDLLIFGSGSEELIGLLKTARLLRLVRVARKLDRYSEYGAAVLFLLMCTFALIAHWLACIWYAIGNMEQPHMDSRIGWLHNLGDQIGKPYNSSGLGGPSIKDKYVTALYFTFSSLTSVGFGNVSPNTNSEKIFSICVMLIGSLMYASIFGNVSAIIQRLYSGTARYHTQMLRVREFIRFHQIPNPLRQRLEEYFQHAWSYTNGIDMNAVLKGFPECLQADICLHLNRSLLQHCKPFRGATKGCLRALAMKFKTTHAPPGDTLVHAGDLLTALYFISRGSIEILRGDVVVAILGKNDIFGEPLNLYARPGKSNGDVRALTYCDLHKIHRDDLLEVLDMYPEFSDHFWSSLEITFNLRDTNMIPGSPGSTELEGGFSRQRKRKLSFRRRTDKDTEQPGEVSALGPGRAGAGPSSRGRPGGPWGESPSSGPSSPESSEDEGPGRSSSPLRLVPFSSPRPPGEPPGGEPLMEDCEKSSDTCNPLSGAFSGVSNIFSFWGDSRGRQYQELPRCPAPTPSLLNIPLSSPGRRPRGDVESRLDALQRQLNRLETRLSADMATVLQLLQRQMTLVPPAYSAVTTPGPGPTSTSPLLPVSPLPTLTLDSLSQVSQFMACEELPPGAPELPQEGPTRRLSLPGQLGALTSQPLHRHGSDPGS

IC50 (human CXCR3A)	SMILES	% block (hERG K channel; concentration 300 nM)	% block (hERG K channel; concentration 3000 nM)
8.5 nM	CCOc1ncc(-c2nc(C(F)(F)F)sc2N2CCN(C(=O)Cn3nc(C)nc3CC)[C@H](C)C2)cn1 (single isomer, unassigned) [Example 19]	4%	12%
1.6 nM	CCc1nc(C)n(CC(=O)N2CCN(c3sc(C(F)(F)F)nc3-c3cnc(C(F)(F)F)nc3)C[C@H]2C)n1 (single isomer, unassigned) [Example 46]	13%	29%
3.5 nM	CCc1nc(C)nn1CC(=O)N1CCN(c2sc(C(F)(F)F)nc2-c2cnc(C(F)(F)F)nc2)C[C@H]1C (single isomer, unassigned) [Example 47]	5%	18%
111 nM	COc1ccc(-c2nc(C(F)(F)F)sc2N2CCN(C(=O)Cn3nc(C)nc3C)[C@H](C)C2)cc1 [Example 1, 2-(3,5-Dimethyl-[1,2,4]triazol-1-yl)-1-{(R)-4-[4-(4-methoxy-phenyl)-2-trifluoromethyl-thiazol-5-yl]-2-methyl-piperazin-1-yl}-ethanone]	4%	13%
64 nM	Cc1nc(C)n(CC(=O)N2CCN(c3sc(C(F)(F)F)nc3-c3ccc(F)cc3)C[C@H]2C)n1 [Example 6, 2-(3,5-Dimethyl-[1,2,4]triazol-1-yl)-1-{(R)-4-[4-(4-fluoro-phenyl)-2-trifluoromethyl-thiazol-5-yl]-2-methyl-piperazin-1-yl}-ethanone]	11%	51%
28 nM	Cc1ccc(-c2nc(C(F)(F)F)sc2N2CCN(C(=O)Cn3nc(C)nc3C)[C@H](C)C2)cc1 [Example 8, 2-(3,5-Dimethyl-[1,2,4]triazol-1-yl)-1-[(R)-2-methyl-4-(4-p-tolyl-2-trifluoromethyl-thiazol-5-yl)-piperazin-1-yl]-ethanone]	22%	61%
36 nM	CCc1ccc(-c2nc(C(F)(F)F)sc2N2CCN(C(=O)Cn3nc(C)nc3C)[C@H](C)C2)cc1 [Example 9, 2-(3,5-Dimethyl-[1,2,4]triazol-1-yl)-1-{(R)-4-[4-(4-ethyl-phenyl)-2-trifluoromethyl-thiazol-5-yl]-2-methyl-piperazin-1-yl}-ethanone]	12%	44%
20 nM	COc1ccc(-c2nc(C(F)(F)F)sc2N2CCN(C(=O)Cn3nc(C)nc3C)[C@H](C)C2)cc1F [Example 10, 2-(3,5-Dimethyl-[1,2,4]triazol-1-yl)-1-{(R)-4-[4-(3-fluoro-4-methoxy-phenyl)-2-trifluoromethyl-thiazol-5-yl]-2-methyl-piperazin-1-yl}-ethanone]	7%	20%
25 nM	COc1ccc(-c2nc(C(F)(F)F)sc2N2CCN(C(=O)Cn3nc(C)nc3C)[C@H](C)C2)cc1C [Example 12, 2-(3,5-Dimethyl-[1,2,4]triazol-1-yl)-1-{(R)-4-[4-(4-methoxy-3-methyl-phenyl)-2-trifluoromethyl-thiazol-5-yl]-2-methyl-piperazin-1-yl}-ethanone]	6%	27%
5.6 nM	[2H]C([2H])(C(=O)N1CCN(c2sc(C(F)(F)F)nc2-c2cnc(OCC)nc2)C[C@H]1C)n1nc(C)nc1C [Example 41, 2-(3,5-Dimethyl-[1,2,4]triazol-1-yl)-1-{(R)-4-[4-(2-ethoxy-pyrimidin-5-yl)-2-trifluoromethyl-thiazol-5-yl]-2-methyl-piperazin-1-yl}-2,2-dideuterium-ethanone]		

Continued, compound first:

SMILES	IC50 (human CXCR3A)	% block (hERG K channel; concentration 300 nM)	% block (hERG K channel; concentration 3000 nM)
Cc1nc(C)n(CC(=O)N2CCN(c3sc(C(F)(F)F)nc3-c3ccc(OC(C)C)cc3)C[C@H]2C)n1 [Example 2, 2-(3,5-Dimethyl-[1,2,4]triazol-1-yl)-1-{(R)-4-[4-(4-isopropoxy-phenyl)-2-trifluoromethyl-thiazol-5-yl]-2-methyl-piperazin-1-yl}-ethanone]	16 nM	7%	38%
Cc1nc(C)n(CC(=O)N2CCN(c3sc(C(F)(F)F)nc3-c3ccc(OC(F)(F)F)cc3)C[C@H]2C)n1 [Example 3, 2-(3,5-Dimethyl-[1,2,4]triazol-1-yl)-1-{(R)-2-methyl-4-[4-(4-trifluoromethoxy-phenyl)-2-trifluoromethyl-thiazol-5-yl]-piperazin-1-yl}-ethanone]	9.8 nM	19%	60%
Cc1nc(C)n(CC(=O)N2CCN(c3sc(C(F)(F)F)nc3-c3ccc(OCC(F)(F)F)cc3)C[C@H]2C)n1 [Example 4, 2-(3,5-Dimethyl-[1,2,4]triazol-1-yl)-1-((R)-2-methyl-4-{4-[4-(2,2,2-trifluoro-ethoxy)-phenyl]-2-trifluoromethyl-thiazol-5-yl}-piperazin-1-yl)-ethanone]	12 nM	25%	54%
Cc1nc(C)n(CC(=O)N2CCN(c3sc(C(F)(F)F)nc3-c3ccc(C#N)cc3)C[C@H]2C)n1 [Example 5, 4-(5-{(R)-4-[2-(3,5-Dimethyl-[1,2,4]triazol-1-yl)-acetyl]-3-methyl-piperazin-1-yl}-2-trifluoromethyl-thiazol-4-yl)-benzonitrile]	24 nM		
COc1ccc(-c2nc(C(F)(F)F)sc2N2CCN(C(=O)Cn3nc(C)nc3C)[C@H](C)C2)c(F)c1 [Example 11, 2-(3,5-Dimethyl-[1,2,4]triazol-1-yl)-1-{(R)-4-[4-(2-fluoro-4-methoxy-phenyl)-2-trifluoromethyl-thiazol-5-yl]-2-methyl-piperazin-1-yl}-ethanone]	45 nM	10%	19%
COc1ccc(-c2nc(C(F)(F)F)sc2N2CCN(C(=O)Cn3nc(C)nc3C)[C@H](C)C2)cn1 [Example 16, 2-(3,5-Dimethyl-[1,2,4]triazol-1-yl)-1-{(R)-4-[4-(6-methoxy-pyridin-3-yl)-2-trifluoromethyl-thiazol-5-yl]-2-methyl-piperazin-1-yl}-ethanone]		4%	14%
Cc1ncc(-c2nc(C(F)(F)F)sc2N2CCN(C(=O)Cn3nc(C)nc3C)[C@H](C)C2)cn1 [Example 23, 2-(3,5-Dimethyl-[1,2,4]triazol-1-yl)-1-{(R)-2-methyl-4-[4-(2-methyl-pyrimidin-5-yl)-2-trifluoromethyl-thiazol-5-yl]-piperazin-1-yl}-ethanone]		−1%	−2%
COc1ncc(-c2nc(C(F)(F)F)sc2N2CCN(C(=O)Cn3nc(C)nc3C)[C@H](C)C2)cn1 [Example 32, 2-(3,5-Dimethyl-[1,2,4]triazol-1-yl)-1-{(R)-4-[4-(2-methoxy-pyrimidin-5-yl)-2-trifluoromethyl-thiazol-5-yl]-2-methyl-piperazin-1-yl}-ethanone]		−6%	−5%
CCc1ncc(-c2nc(C(F)(F)F)sc2N2CCN(C(=O)Cn3nc(C)nc3C)[C@H](C)C2)cn1 [Example 43, 2-(3,5-Dimethyl-[1,2,4]triazol-1-yl)-1-{(R)-4-[4-(2-ethyl-pyrimidin-5-yl)-2-trifluoromethyl-thiazol-5-yl]-2-methyl-piperazin-1-yl}-ethanone]		4%	8%
